The source made the active and inactive calls.
Key:
Fatty acid synthase [1] = molecular target: T1, Fatty acid synthase (Homo sapiens, UniProt P49327); experiment: inhibition of human FAS-TE enzyme activity – biochemical, endpoint fluorescence intensity, uHTS hits, dose response (AID 624327); assay type: functional;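 note: fluorescence from hydrolysis of an O-methyl fluorescein acyl ester substrate by the enzyme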
Fatty acid synthase [2] = molecular target: T1, Fatty acid synthase; experiment: inhibition of human FAS-TE enzyme activity – biochemical, kinetic fluorescence intensity, dose response (AID 624326); assay type: functional;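 note: rate of fluorescence rise from hydrolysis of a fluorogenic O-methyl fluorescein ester substrate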
[3] = molecular target: T2, Adenosylmethionine-8-amino-7-oxononanoate aminotransferase (Mycobacterium tuberculosis, UniProt P9WQ81); experiment: Mycobacterium tuberculosis BioA enzyme inhibitor Measured in Biochemical System Using Plate Reader - 2163-02_Inhibitor_Dose_CherryPick_Activity.; assay type: functional, Mycobacterium tuberculosis UT205
T2 sequence (P9WQ81 whole entry): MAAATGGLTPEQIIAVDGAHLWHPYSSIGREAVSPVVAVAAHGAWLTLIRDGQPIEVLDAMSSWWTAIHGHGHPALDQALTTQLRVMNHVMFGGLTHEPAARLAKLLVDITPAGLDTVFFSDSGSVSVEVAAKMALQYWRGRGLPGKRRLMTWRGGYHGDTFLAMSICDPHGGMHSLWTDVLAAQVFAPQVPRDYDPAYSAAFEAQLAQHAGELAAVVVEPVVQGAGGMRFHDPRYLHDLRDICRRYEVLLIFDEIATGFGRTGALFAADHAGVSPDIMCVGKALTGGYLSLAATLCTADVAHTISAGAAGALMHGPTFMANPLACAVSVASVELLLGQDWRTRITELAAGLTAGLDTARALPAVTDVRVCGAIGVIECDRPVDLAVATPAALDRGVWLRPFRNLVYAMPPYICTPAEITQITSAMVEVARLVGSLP

[4] = viability of PTEN-deleted HCT116 cells – cell-based, HCT116 PTEN knockout, dose response (AID 1047); assay type: functional;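 note: HCT116 colon tumor cells with PTEN knocked out; cells exposed to compound for 60 hours before readout; potency for loss of cell viability measured by luminescence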
[5] = molecular target: T3, Zinc finger protein mex-5 (Caenorhabditis elegans, UniProt Q9XUB2); experiment: potency of MEX-5 RNA-binding blockers – biochemical, C. elegans, fluorescence polarization, dose response (AID 1960)
T3 sequence (Q9XUB2 whole entry): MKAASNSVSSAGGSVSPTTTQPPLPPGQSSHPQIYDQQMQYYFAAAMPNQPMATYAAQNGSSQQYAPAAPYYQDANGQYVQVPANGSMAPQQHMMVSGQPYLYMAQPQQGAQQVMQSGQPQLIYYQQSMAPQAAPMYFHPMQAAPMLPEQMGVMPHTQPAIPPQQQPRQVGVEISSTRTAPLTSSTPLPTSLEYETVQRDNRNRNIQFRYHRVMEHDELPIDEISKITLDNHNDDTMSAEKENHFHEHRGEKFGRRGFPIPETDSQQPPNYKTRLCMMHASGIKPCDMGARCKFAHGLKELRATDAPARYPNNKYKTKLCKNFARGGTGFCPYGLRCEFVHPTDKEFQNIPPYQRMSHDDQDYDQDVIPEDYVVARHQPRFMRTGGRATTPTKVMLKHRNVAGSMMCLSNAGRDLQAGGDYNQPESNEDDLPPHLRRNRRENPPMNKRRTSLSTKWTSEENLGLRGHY

[6] = molecular target: T4, Endoribonuclease toxin MazF (Escherichia coli K-12, UniProt P0AE70); experiment: substrate-only fluorescence increase artefacts – biochemical, single-stranded RNase substrate, counter-screen for MazEF activator project, dose response (AID 588502); assay type: functional
T4 sequence (P0AE70 whole entry): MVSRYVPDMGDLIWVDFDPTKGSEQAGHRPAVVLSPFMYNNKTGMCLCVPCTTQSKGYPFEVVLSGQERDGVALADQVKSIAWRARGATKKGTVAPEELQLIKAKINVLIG

[7] = molecular target: T4, Endoribonuclease toxin MazF; experiment: activation of MazEF endoribonuclease cleavage – biochemical, fluorescence, single-stranded RNA substrate, uHTS hits, dose response (AID 588481); assay type: functional
[8] = molecular target: T5, RNA-binding protein pos-1 (Caenorhabditis elegans, UniProt G5EF15); experiment: disruptors of C. elegans POS-1 RNA interaction – biochemical, fluorescence polarization, dose response (AID 1964);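 note: purified POS-1 fused to maltose binding protein made in E. coli; potency of compounds blocking POS-1 binding to fluorescent RNA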
T5 sequence (G5EF15 whole entry): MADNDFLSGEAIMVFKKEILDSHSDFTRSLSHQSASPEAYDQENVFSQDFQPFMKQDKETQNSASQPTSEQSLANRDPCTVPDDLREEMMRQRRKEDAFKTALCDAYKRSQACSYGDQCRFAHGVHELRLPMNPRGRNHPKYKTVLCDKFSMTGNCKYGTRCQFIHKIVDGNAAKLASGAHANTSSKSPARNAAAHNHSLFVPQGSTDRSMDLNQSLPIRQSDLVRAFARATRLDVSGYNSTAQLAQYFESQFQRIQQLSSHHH

[9] = viability of HCT116 lacking mutant beta-catenin – cell-based, human colon tumor, dose response (AID 1045); assay type: functional;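 note: HCT116 colon tumor cells with beta catenin knocked out; cells exposed to compound for 60 hours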
Streptokinase A = molecular target: T6, Streptokinase A (Streptococcus pyogenes serotype M1, UniProt P10520); experiment: viability-normalized secreted streptokinase activity reduction – plasminogen activation absorbance, OD405, dose response (AID 1914); assay type: functional, Streptococcus pyogenes M1 GAS;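 note: secreted streptokinase activity via plasminogen activation per viability signal from cell pellet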
T6 sequence (P10520 whole entry): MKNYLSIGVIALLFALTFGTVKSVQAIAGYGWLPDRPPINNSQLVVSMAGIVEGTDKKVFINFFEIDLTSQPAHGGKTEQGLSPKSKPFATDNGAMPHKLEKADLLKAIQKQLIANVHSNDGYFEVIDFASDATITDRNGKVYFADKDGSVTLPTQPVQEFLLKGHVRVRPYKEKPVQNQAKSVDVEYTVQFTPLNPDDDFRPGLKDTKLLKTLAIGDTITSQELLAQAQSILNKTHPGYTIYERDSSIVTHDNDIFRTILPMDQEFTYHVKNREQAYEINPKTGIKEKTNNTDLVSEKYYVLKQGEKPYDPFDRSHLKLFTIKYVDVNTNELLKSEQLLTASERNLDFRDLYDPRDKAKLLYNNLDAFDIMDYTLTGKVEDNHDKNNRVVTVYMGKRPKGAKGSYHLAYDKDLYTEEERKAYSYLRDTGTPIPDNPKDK

[10] = tested on: Streptococcus sp. 'group A'; experiment: Streptococcus pyogenes SK(-)GAS viability under kanamycin – luminescence, BacTiterGlo, confirmation, counter-screen for streptokinase expression inhibitor project, dose response (AID 1900); assay type: functional, organism-based
Genome polyprotein = Genome polyprotein (dengue virus type 2, UniProt P29990); experiment: flavivirus cap methylation enzyme inhibition – biochemical, confirmation dose response, primary screen (AID 588689); assay type: functional
Vero = experiment: viability of Vero cells under compound – cytotoxicity control for flavivirus capping enzyme inhibitors (AID 588742); assay type: functional; details: Chlorocebus sabaeus
[11] = fluconazole-exposed Candida albicans growth modulators – fluorescence, retest, confirmation (AID 2467); assay type: functional, cell-based
Streptococcus = experiment: GAS UMAA2166 growth inhibition – luminescence, BacTiterGlo, counter-screen for streptokinase expression inhibitor project, dose response (AID 1915); assay type: functional, organism-based;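 note: potency for reduction of bacterial viability or growth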
[12] = NIH-3T3 fibroblast cytotoxicity, dose response, cytotoxicity control, cell-based, fluorescence, Alamar Blue, secondary assay (AID 2327); assay type: functional;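 note: NIH-3T3 mouse fibroblasts cultured with fluconazole at 8 µg/mL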
Leucine aminopeptidase = molecular target: T7, Leucine aminopeptidase (Plasmodium falciparum 3D7, UniProt Q8IL11); experiment: P. falciparum M17LAP inhibitors, primary screen, biochemical, fluorogenic H-Leu-NHMec substrate, 1536-well (AID 1619); assay type: functional
T7 sequence (Q8IL11 whole entry): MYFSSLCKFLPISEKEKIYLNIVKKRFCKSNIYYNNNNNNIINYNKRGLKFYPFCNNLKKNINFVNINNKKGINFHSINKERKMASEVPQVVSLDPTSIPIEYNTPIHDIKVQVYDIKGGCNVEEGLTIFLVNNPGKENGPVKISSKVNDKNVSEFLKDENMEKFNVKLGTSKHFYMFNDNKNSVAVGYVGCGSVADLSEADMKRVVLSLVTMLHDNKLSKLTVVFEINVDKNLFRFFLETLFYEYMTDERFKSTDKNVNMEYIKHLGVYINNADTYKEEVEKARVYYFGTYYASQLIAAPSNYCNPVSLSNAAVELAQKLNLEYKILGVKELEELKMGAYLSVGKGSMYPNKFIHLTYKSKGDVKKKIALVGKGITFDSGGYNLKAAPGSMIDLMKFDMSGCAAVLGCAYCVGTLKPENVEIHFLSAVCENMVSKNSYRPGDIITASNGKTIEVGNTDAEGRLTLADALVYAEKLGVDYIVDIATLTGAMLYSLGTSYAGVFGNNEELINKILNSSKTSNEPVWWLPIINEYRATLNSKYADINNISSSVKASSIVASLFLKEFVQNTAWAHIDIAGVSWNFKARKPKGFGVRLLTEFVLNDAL

[13] = molecular target: T8, Short transient receptor potential channel 4 (Mus musculus, UniProt Q9QUQ5); experiment: calcium entry via TRPC4 opening agents – cell-based, HEK293 TRPC4/mu-opioid, Fluo-4 calcium, dose response (AID 434937); assay type: functional
T8 sequence (Q9QUQ5 whole entry): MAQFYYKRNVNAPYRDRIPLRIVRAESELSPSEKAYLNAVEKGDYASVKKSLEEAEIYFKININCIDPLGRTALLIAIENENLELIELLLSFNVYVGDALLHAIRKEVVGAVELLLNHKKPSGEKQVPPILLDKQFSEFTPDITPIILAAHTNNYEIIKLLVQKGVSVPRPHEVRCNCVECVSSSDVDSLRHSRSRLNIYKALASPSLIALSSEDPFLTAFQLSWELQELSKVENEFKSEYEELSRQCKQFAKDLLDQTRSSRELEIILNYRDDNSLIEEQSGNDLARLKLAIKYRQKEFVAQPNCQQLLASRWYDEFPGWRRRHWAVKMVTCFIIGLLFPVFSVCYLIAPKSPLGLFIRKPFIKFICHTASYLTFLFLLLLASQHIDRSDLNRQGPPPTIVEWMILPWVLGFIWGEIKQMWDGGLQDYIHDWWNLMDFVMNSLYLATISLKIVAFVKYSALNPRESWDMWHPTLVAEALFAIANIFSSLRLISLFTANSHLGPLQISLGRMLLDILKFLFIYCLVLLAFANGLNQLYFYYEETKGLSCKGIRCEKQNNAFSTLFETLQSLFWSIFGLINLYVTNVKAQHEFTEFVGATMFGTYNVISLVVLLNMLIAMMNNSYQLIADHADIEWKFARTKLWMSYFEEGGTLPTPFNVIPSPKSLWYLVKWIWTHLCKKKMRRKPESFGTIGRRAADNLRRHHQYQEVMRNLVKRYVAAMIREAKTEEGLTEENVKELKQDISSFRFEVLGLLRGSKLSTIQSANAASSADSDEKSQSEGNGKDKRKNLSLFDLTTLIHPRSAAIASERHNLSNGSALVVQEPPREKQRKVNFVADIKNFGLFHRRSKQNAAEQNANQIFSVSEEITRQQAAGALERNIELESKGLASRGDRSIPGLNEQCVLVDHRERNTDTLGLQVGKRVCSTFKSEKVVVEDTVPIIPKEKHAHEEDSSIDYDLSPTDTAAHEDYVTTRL

[14] = molecular target: T9, Small ubiquitin-related modifier 1 (Homo sapiens, UniProt P63165); experiment: SUMO1 protein interaction blockers, potency – biochemical, fluorescence polarization, uHTS hits, dose response (AID 624382); assay type: functional; details: read-out: IC50_Mean
[15] = molecular target: T9, Small ubiquitin-related modifier 1; experiment: SUMO1 protein-protein binding blockers, potency – biochemical, FRET, dose response (AID 624383); assay type: functional; details: read-out: IC50_Mean

T1 sequence (P49327 whole entry): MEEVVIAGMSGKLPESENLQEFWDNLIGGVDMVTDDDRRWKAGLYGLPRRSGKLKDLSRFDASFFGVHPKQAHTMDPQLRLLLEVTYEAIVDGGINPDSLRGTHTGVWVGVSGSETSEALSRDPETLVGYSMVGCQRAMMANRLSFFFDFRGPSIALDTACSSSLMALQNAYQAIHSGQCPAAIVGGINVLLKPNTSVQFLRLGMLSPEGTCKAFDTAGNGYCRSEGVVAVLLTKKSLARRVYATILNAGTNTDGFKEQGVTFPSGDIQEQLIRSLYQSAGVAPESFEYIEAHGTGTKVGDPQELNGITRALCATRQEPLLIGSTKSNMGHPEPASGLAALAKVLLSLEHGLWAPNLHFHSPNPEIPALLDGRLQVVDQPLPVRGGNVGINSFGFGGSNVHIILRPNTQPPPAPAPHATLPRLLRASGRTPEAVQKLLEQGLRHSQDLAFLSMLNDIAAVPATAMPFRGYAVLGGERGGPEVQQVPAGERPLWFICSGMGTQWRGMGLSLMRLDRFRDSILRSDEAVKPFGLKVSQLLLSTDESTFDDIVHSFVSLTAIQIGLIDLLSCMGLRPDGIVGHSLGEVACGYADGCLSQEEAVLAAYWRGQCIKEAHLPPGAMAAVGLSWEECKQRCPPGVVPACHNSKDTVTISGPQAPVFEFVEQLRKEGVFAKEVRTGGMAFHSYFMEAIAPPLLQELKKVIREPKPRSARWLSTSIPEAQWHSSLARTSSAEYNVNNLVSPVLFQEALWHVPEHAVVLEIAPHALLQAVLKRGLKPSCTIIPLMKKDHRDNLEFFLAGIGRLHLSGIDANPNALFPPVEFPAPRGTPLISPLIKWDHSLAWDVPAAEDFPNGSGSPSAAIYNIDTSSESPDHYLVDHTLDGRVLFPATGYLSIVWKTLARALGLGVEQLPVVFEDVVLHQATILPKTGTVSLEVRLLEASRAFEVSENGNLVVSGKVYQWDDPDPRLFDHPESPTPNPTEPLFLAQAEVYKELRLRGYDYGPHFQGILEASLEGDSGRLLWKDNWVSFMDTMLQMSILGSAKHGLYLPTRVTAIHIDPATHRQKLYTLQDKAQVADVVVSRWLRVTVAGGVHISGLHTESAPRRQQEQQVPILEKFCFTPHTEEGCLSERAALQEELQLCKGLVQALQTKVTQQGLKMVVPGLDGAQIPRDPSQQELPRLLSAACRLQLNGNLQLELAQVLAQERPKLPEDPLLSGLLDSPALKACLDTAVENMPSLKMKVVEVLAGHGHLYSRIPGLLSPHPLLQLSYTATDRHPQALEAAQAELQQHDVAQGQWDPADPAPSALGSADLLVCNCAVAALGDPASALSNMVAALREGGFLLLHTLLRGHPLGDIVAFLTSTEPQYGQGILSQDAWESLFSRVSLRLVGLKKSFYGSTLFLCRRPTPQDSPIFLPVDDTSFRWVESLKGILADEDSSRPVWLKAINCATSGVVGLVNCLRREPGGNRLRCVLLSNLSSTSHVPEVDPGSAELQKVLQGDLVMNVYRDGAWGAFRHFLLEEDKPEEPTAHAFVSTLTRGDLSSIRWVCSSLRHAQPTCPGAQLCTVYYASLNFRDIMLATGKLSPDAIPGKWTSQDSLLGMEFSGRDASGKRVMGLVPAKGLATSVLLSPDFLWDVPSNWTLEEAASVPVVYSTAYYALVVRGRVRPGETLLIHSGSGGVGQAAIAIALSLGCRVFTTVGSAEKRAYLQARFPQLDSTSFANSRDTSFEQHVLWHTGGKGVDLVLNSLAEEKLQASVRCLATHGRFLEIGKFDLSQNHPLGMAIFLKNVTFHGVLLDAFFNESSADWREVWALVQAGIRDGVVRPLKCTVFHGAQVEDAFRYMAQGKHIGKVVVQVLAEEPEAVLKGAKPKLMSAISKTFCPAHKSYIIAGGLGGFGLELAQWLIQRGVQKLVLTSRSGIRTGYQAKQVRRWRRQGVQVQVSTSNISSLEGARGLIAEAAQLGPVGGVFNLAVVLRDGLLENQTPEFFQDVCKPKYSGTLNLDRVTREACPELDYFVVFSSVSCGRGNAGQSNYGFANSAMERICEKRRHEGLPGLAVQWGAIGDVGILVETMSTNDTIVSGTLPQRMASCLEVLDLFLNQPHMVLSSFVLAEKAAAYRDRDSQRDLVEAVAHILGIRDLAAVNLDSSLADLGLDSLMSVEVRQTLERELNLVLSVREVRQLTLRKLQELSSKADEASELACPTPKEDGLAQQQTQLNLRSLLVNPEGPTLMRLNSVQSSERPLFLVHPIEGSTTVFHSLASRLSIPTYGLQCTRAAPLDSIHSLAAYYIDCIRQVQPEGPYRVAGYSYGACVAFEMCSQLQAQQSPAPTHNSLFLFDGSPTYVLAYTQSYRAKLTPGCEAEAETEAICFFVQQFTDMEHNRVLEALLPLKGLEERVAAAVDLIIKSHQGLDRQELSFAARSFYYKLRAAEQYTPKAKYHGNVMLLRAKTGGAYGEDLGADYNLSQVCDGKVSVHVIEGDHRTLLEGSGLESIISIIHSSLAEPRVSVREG
T9 sequence (P63165 whole entry): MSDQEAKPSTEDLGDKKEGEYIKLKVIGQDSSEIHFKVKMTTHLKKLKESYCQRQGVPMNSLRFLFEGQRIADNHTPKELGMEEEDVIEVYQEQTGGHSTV
Genome polyprotein, sequence (P29990 2492-3391 limits assumed): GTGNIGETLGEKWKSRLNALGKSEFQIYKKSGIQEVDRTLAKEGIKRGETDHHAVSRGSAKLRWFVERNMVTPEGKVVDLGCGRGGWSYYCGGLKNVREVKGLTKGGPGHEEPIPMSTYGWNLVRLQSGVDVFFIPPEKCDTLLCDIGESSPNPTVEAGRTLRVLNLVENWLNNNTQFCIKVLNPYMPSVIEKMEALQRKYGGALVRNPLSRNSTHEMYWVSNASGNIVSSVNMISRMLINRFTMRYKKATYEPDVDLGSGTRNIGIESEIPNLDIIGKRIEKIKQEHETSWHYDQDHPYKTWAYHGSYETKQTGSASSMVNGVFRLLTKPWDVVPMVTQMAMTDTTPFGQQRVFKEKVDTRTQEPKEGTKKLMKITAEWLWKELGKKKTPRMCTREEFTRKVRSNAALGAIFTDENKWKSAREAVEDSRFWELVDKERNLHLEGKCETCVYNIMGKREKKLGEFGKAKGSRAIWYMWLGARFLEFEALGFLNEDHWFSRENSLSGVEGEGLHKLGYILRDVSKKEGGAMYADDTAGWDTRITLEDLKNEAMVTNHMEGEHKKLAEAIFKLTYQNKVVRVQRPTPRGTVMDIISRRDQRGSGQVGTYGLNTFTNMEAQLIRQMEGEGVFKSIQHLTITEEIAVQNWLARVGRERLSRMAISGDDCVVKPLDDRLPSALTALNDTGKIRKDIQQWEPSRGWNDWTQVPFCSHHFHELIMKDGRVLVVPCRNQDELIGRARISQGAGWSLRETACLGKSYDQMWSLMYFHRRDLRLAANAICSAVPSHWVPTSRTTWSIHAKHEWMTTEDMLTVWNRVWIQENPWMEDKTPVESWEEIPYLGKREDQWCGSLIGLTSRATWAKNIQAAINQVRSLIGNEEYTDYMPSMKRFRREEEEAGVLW

## C=CCNC(=O)/C(=C\c1ccc(OC)cc1)NC(=O)c1ccc([N+](=O)[O-])cc1
Fatty acid synthase [1]
  IC50: 2.93 µM (active)
Fatty acid synthase [2]
  IC50: 2.21 µM (active)

## CCC(=O)N1CC[C@@H]2[C@@H](CO)N(C)c3ccc(-c4cccc(F)c4)cc3[C@@H]21
[3]
  AC50: 0.184 µM (active)

## C=CCn1c(SCc2cc([N+](=O)[O-])cc3c2OCOC3)nc2cc(C(=O)O)ccc2c1=O
Fatty acid synthase [1]
  IC50: 2.57 µM (active)
Fatty acid synthase [2]
  IC50: 1.6 µM (active)

## Cc1cc(NC(=O)CN(C)S(=O)(=O)c2c[nH]cn2)ccc1Br
[3]
  AC50: 19 µM (active)

## CCn1c(/C=C/c2c(C)[nH]c3ccccc23)nc2ccccc2c1=O
[4]
  EC50: 7.1 µM (active)
[5]
  EC50: > 300 µM (inconclusive)
[6]
  EC50: > 99 µM (inactive)
[7]
  EC50: > 99 µM (inactive)
[8]
  EC50: > 300 µM (not active)
[9]
  EC50: 5.59 µM (active)

## Nn1c(SCCOc2ccccc2)nnc1-c1cccnc1
[3]
  AC50: 1.33 µM (active)

## CCOCCCNC(=O)CSc1nc2nc(C)c(Cc3ccccc3)c(C)n2n1
[3]
  AC50: 2.18 µM (active)

## CCc1ccc(/C=C2\SC(=S)N(CCCC(=O)Nc3ccccc3C(=O)O)C2=O)cc1
Streptokinase A
  EC50: > 50 µM (not active)
[10]
  EC50: 1.9 µM (active)
Genome polyprotein
  IC50: 30.8 µM (active)
Vero
  CC50: > 40 µM (active)
[11]
  EC50: 2.37 µM (active)
Streptococcus
  EC50: 133 µM (active)
[12]
  EC50: 6.89 µM (inconclusive)

## Cc1onc(-c2ccccc2)c1C(=O)NNC(=S)NC(=O)c1ccc(F)cc1
Leucine aminopeptidase
  IC50: 79.4 µM (active)
[13]
  EC50: 5.96 µM (active)
[14]
  IC50: > 66.6 µM (inactive)
[15]
  IC50: 100 µM (inactive)

## COc1ccc(C(=O)NC(CC(=O)O)c2cc([N+](=O)[O-])ccc2Cl)c(SC)c1 (stereo not drawn)
Fatty acid synthase [1]
  IC50: 7.33 µM (active)
Fatty acid synthase [2]
  IC50: 8.79 µM (active)

## O=C(CC(C(=O)O)c1ccc(Cl)cc1)c1ccc(Cl)c(Cl)c1 (stereo not drawn)
Fatty acid synthase [1]
  IC50: 2.11 µM (active)
Fatty acid synthase [2]
  IC50: 4.21 µM (active)

## O=C(O)CCS(=O)(=O)c1nc(-c2cccs2)cc(C(F)(F)F)n1
[3]
  AC50: 15.6 µM (active)

## CC(=O)Nc1ccc(S(=O)(=O)NCCSCc2c(Cl)cccc2Cl)cc1
Vero
  CC50: > 40 µM (active)
[4]
  EC50: 61.4 µM (active)
[9]
  EC50: 149 µM (active)

Source: ChEMBL document CHEMBL1201862, “PubChem BioAssay data set” (2004)
